From patent US7557573B2, “NMR-based methods for detecting ligands, where the ligand or target are hyperpolarized and the NMR-spectrum is compared with a reference spectrum of the ligand or target” (GE Healthcare AS, priority 2002, dated 2009)

Experiments:
Urease = test: Hyperpolarised 13C-urea NMR assay of enzymatic conversion and its inhibition; conditions: 10, 12 and 14 units urease, substrate concentration constant
Experimental: The frozen sample was hyperpolarised for one hour (DNP method). The sample was dissolved in a phosphate buffer (10 mM, pH 7.6, 100° C., 8.5 ml (active dissolution volume 3 ml)) and 500 μl were transferred to a 10 mm NMR tube containing 2.5 ml of a solution (same buffer as for urea) containing 12 units urease (0.1 mg). A series of 40 one-dimensional ^13C spectra were collected as one every 3 s, with a reduced flip angle (15°).
It is possible to calibrate the flip angle, and the relaxation rate for urea is known. […] Another way of calculating the reaction rate for the system is to vary the enzyme concentration while keeping the concentration of substrate constant.
The latter approach was used in a series of experiments that were performed as described above, only the concentration of urease was varied. Three experiments were performed with 10 units, 12 units and 14 units urease. The urease activity was plotted as a function of concentration. From this plot, the reaction rate constant was extracted directly. The NMR signal intensities of urea in the individual experiments have been used to calculate the enzymatic activity.

[1] = test system: Src homology domain 2 from growth binding hormone; conditions: cited from earlier work
[2] = test system: Src homology domain 2 from growth binding hormone; test: Hyperpolarised (DNP) 13C-NMR binding assay, ligand free vs bound signals; conditions: target to ligand ratio 4:1, ligand 24 μM, 25° C., single scan
Experimental: The sample was placed in the polariser and hyperpolarised overnight (17 h) at 93.934 GHz and 100 mW (DNP method). The sample was brought into solution with phosphate buffer (pH 6.5, 100 mM, 60° C., 8.5 ml). The active dissolution volume was 3 ml with 90% recovery of substance, providing a final concentration of 5.7 μM. […] A liquid state NMR spectrum was acquired in one scan with a 90° pulse angle and acquisition time of 1 s. One NMR signal was obtained at 176.9 ppm from the ^13C-labeled ligand. The signal-to-noise ratio (SNR) of the spectrum was 50.
940 μl of the target solution (100 μM target, 5 mM DTT, 100 mM NaCl, 50 mM phosphate pH 6.5) was placed in 10 mm NMR tube with a bottom plug, reducing the active volume to […]. The tube was placed in a 9.4 T magnet with the temperature of the probe equilibrated to 25° C. A tube was connected to the bottom of the NMR tube to allow for injection of the ligand solution into the target solution.
The sample was placed in the polariser and hyperpolarised overnight (17 h) at 93.934 GHz and 100 mW (DNP method). […]
In this example, the target to ligand concentration ratio was 4:1. […] By varying the ligand to target concentration in the assay it would thus be possible to measure the binding affinity by quantifying the relative amounts of free and bound ligand visible in the spectra based on the knowledge of ligand/target concentrations used in the assay.

Compound: NC(N)=O [urea]
- rate constant for the system (enzymatic conversion of urea) (Urease): 0.0019 s⁻¹

Compound: (1-^13C)—Ac—EpYINQ—NH2
- exchange regime of ligand with the target [1]: slow exchange with the target
- NMR signals of hyperpolarised ligand in mixture with target (free/bound) [2]: two signals, one from the unbound ligand (176.94 ppm) and one from the bound ligand (176.2 ppm)
